{"source": "patent US12370170B2", "about": "“Composition comprising naphthoquinone-based compound as active ingredient, for preventing or ameliorating fatigue, cachexia, pain, cognitive decline and hematopoietic stem cell reduction which are side effects related to anticancer drug treatment” (NADIANBIO LTD., priority 2016, dated 2025)", "assay_type_in_all_cases": "in vivo, C57BL/6 mice", "key": {"[1]": {"tested_on": "inflammatory cytokines TNF-α, IL-1β, IL-6 and IL-17", "test": "Plasma inflammatory cytokines by ELISA in adriamycin animal model", "details": "adriamycin 4 mg/kg/day i.p. ×3; compound 20 mg/kg oral daily from 3 days before; 4 days after final adriamycin; vs adriamycin group", "description": "(§1) In this invention, 11 weeks old C57BL/6 mice were used. All the mice used in the experiments of the invention were raised in an aseptic animal room at the temperature of 22˜26 L with the humidity of 55˜60%. The mice were allowed to take general solid feed (SAMTACO Co., Ltd., Korea) and water freely. The mice were adapted for 1 week before the experiment. All the experiments were performed after obtaining approval from the clinical trial management committee in accordance with the laboratory animal care and ethics regulations of Wonkwang University. The mouse animal model of the present invention was treated with different anticancer drugs. […]\nParticularly, plasma was isolated from the adriamycin animal model prepared by the same manner as described in Example 4, and the inflammatory cytokines TNF-α (R&D Systems, MTA00B), IL-1β (R&D Systems, MLB00C), IL-6 (R&D Systems, M6000B) and IL-17 (R&D Systems, M1700) were analyzed by ELISA (enzyme-linked immunosorbent assay).\nTo investigate the regulatory effect of β-lapachone on adriamycin induced inflammatory cytokines, plasma was isolated from the adriamycin animal model prepared by the same manner as described in Example 4, and the inflammatory cytokines TNF-α, IL-1β, IL-6 and IL-17 were analyzed by ELISA."}, "[2]": {"tested_on": "inflammatory cytokines TNF-α and IL-1β", "test": "Brain inflammatory response: TNF-α and IL-1β in hypothalamus (RT-PCR, ELISA), 4×ACP animal model", "details": "β-lapachone 20 mg/kg oral, ELISA of homogenate", "description": "In this invention, 11 weeks old C57BL/6 mice were used. All the mice used in the experiments of the invention were raised in an aseptic animal room at the temperature of 22˜26 L with the humidity of 55˜60%. The mice were allowed to take general solid feed (SAMTACO Co., Ltd., Korea) and water freely. The mice were adapted for 1 week before the experiment. All the experiments were performed after obtaining approval from the clinical trial management committee in accordance with the laboratory animal care and ethics regulations of Wonkwang University. The mouse animal model of the present invention was treated with different anticancer drugs. Particularly, one kind of anticancer drug was administered intraperitoneally one time or more, or several kinds of anticancer drugs were administered once or more times or at different concentrations, leading to the establishment of the animal model of the invention. In the adriamycin-induced animal model, the mice were divided into 6 groups as follows: the control group administered with PBS (Control, 5 mice), the group administered intraperitoneally with adriamycin (4 mg/kg/day) 3 times (ADR, 5 mice), the group administered orally with dunnione or β-lapachone from 3 days before the adriamycin treatment daily (20 mg/kg, 5 mice), and the group administered with dunnione or β-lapachone (20 mg/kg, 5 mice). 4 days after the final adriamycin treatment, analysis of the mice was performed.\nThe present inventors established an animal model co-treated with three different anticancer drugs in this experiment. The anticancer drugs used herein were adriamycin (ADR), cyclophosphamide (CYP) and paclitaxel (PTX), which were indicated as ACP. […]\nA homogenate was prepared with the mouse hypothalamus extracted from the 4×ACP animal model prepared by the same manner as described in Example 8. Then, the expressions of the inflammatory cytokines TNF-α and IL-1β in the brain tissue were analyzed by ELISA."}, "[3]": {"tested_on": "orexin", "test": "Orexin protein in hypothalamus by ELISA, 4×ACP animal model", "details": "β-lapachone 20 mg/kg oral daily from 3 days before, 2 days after ACP", "description": "as §1, with “drugs. Particularly, one kind of anticancer drug was administered intraperitoneally one time or more, or several kinds of anticancer drugs were administered once or more times or at different concentrations, leading to the establishment of the animal model of the invention.” for “drugs.”\nTo analyze orexin protein in the 4×ACP animal model prepared by the same manner as described in Example 8, the hypothalamus of the mouse was extracted, followed by the preparation of a homogenate. Orexin (MyBioSource, MBS2505504) was analyzed by ELISA to investigate the regulatory effect of β-lapachone on orexin."}}, "data": [{"molecule": "CC1(C)CCC2=C(O1)c1ccccc1C(=O)C2=O", "note": "[β-lapachone, 3,4-Dihydro-2,2-dimethyl-2H-naphtho(1,2-b) pyran-5,6-dione]", "values": [{"measurement": "level of inflammatory cytokines (TNF-α, IL-1β, IL-6, IL-17) in plasma", "setting": "[1]", "value": "significantly reduced"}, {"measurement": "up-regulations of TNF-α and IL-1β in the hypothalamus", "setting": "[2]", "value": "significantly suppressed"}, {"measurement": "orexin reduction in the hypothalamus", "setting": "[3]", "value": "significantly restored"}]}]}
